Measurements published in paper PMC6344527, “Toxicity and possible mechanisms of action of honokiol from Magnolia denudata seeds against four mosquito species” (Scientific Reports, 2019).
In brackets after ≈: the same amount, converted by molar mass. Where two headings read alike, the source gives them in different places.

Legend:
mosquito species larvae = conditions: cited from earlier work
[1] = system: third-instar larvae of insecticide-susceptible Aedes aegypti; experiment: contact mortality bioassay, 24 h exposure; type: in vivo; conditions: for LC50: Aedes aegypti, 24 h; for LC50 / LC90 (mg/L) (95% CI) / LC50 (mg/L) (95% CI): 24 h exposure
Experimental: (§1) A contact mortality bioassay[25] was used to evaluate the toxicity of all compounds against third-instar larvae of the four mosquito species. Each test compound in methanol was suspended in DW with Triton X-100 (20 µL/L). Groups of 20 mosquito larvae were separately placed into paper cups (270 mL) containing each compound solution (250 mL). […] Negative controls consisted of a methanol–Triton X-100 solution in DW.
(§2) Treated and control (methanol–Triton X-100 solution only) larvae were maintained under the same conditions as those used for colony maintenance without providing food. Larval mortalities were determined 24 h post-treatment. […] All treatments were performed three times using 20 larvae per replicate.
(§3) The concentration of the test compounds required to produce 50% AChE inhibitory activity (IC50) was determined using the SAS 9.13 program (Cary: SAS Institute; 2014). Concentration-mortality data were subjected to probit analysis using the SAS 9.13 program. […] Statistical analyses were performed using the SAS 9.13 program. Multiple linear regression and correlation analysis were performed using the SPSS 24 program (Armonk: IBM Corp.; 2016).

[2] = system: third-instar larvae of insecticide-susceptible Culex pipiens pallens; experiment: contact mortality bioassay, 24 h exposure; type: in vivo; conditions: for LC50: Culex pipiens, 24 h; for LC50 / LC90 (mg/L) (95% CI) / LC50 (mg/L) (95% CI): 24 h exposure
Experimental: as §1, §2, §3

[3] = target: acetylcholinesterase (AChE) from third-instar Ae. aegypti larvae (Aedes aegypti, UniProt A4GND7); experiment: acetylcholinesterase inhibition assay; type: biochemical; conditions: based on IC50 values
Sequence of acetylcholinesterase (AChE) from third-instar Ae. aegypti larvae (A4GND7 37-679): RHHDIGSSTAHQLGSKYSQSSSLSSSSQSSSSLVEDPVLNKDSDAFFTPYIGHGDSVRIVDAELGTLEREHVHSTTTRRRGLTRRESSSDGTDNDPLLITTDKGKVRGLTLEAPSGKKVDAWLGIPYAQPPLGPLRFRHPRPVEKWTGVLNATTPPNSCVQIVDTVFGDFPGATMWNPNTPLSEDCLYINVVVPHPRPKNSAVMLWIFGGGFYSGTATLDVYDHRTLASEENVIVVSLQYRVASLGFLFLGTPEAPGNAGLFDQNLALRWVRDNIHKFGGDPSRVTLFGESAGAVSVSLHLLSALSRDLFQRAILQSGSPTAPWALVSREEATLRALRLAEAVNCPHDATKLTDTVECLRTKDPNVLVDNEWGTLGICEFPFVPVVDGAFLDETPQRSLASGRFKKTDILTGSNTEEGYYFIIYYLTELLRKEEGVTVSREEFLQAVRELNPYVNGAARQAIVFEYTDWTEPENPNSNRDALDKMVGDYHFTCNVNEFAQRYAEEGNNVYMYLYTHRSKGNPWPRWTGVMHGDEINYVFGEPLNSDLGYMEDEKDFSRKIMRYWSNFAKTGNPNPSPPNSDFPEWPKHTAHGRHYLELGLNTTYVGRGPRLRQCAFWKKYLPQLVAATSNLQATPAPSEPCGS
Experimental: The in vitro AChE inhibitory activity of the test compounds was assessed according to the method of Perumalsamy et al.[42]. Third-instar Ae. aegypti larvae were used in all experiments. Whole bodies of 50 larvae were homogenized in 1 mL of ice-cold 0.1 M phosphate buffer (pH 8.0) using a glass tissue homogenizer. After filtering through cheesecloth, the homogenate was centrifuged at 1,000 × g at 4 °C for 5 min. The supernatant was used directly as the enzyme source for AChE. The protein levels were determined using the Bradford Protein Assay Kit (Bio-Rad Laboratories, Hercules, CA, USA) using BSA as the standard. The reaction mixture consisted of 50 µL of the crude enzyme preparation (4.3–4.8 µg protein equivalents), 150 µL of 0.1 M phosphate buffer, 20 µL of 3 mM DTNB in phosphate buffer (pH 7.0), and 1 µL of various concentrations of each test compound in ethanol. The reaction mixture was incubated at 30 °C for 5 min, and 20 µL of 32 mM ATChI was then added to the mixture. After incubation for 30 min, the reaction was terminated by adding 20 µL of 5 mM eserine salicylate. Absorbance was recorded at 412 nm using a VersaMax microplate reader (Molecular Devices, Sunnyvale, CA, USA). […] The results are expressed as the means ± standard errors (SEs) of triplicate samples from three independent experiments.
as §3

[4] = system: third-instar larvae of insecticide-resistant Anopheles sinensis; experiment: contact mortality bioassay, 24 h exposure; type: in vivo; conditions: Table 5, larvae resistant to deltamethrin and temephos, 24 h exposure; for LC50: Anopheles sinensis, read-out: LC50 (mg/L) (95% CI); for Slope ± SE: probit slope
Experimental: as §1, §2, §3

[5] = system: third-instar larvae of insecticide-susceptible Aedes albopictus; experiment: contact mortality bioassay, 24 h exposure; type: in vivo; conditions: for LC50: Aedes albopictus, read-out: LC50 (mg/L) (95% CI); for LC50 / LC90 (mg/L) (95% CI) / Slope ± SE: Table 4, 24 h exposure; for Slope ± SE: probit slope
Experimental: as §1, §2, §3

[6] = system: larvae of four mosquito species (Cx. pipiens pallens, Ae. aegypti, Ae. albopictus, and An. sinensis); experiment: contact mortality bioassay, range over four mosquito species; type: in vivo; conditions: 24 h
Experimental: as §1, §2, §3

[7] = Table 7, structure-activity series, read-out: LC50 (mg/L) (95% CI)
[8] = Table 7, structure-activity series
[9] = Table 6, structure-activity series, read-out: LC50 (mg/L) (95% CI)
[10] = Table 6, structure-activity series
[11] = Table 3, read-out: LC50 (mg/L) (95% CI)
[12] = Table 3, listed as Pure linoleic acid
[13] = Table 2, KS-CP strain, read-out: LC50 (mg/L) (95% CI)
[14] = Table 3, listed as Pure palmitic acid
[15] = Table 2, KS-CP strain, listed as Pure palmitic acid

CC(C)=C1C[C@H]2C(=C(C)C(=O)C1=O)CC[C@]2(C)O [9-oxoneoprocurcumenol]
LC50 (mosquito species larvae; terpenoids): 5.81 µg/mL (≈ 23.4 µM)

O=C(O)/C=C/c1ccc(O)c(O)c1 [Caffeic acid, caffeic acid]
LC50 [1, 7]: 124 mg/L (≈ 691 µM)
LC90 (mg/L) (95% CI) [1, 8]: 235.9 (204.2–296.1) mg/L
LC50 [2, 9]: 119 mg/L (≈ 662 µM)
LC90 (mg/L) (95% CI) [2, 10]: 245.6 (208.1–323.3) mg/L

COP(=O)(OC)OC=C(Cl)Cl [Dichlorvos, dichlorvos, reference compound]
LC50 ([1]; read-out: LC50 (mg/L) (95% CI), Table 7, structure-activity series): 0.158 mg/L (≈ 0.715 µM)
LC90 (mg/L) (95% CI) [1, 8]: 0.660 (0.505–0.963) mg/L
LC50 ([2]; read-out: LC50 (mg/L) (95% CI), Table 6, structure-activity series): 0.103 mg/L (≈ 0.466 µM)
LC90 (mg/L) (95% CI) [2, 10]: 0.504 (0.380–0.761) mg/L
AChE inhibitory activity (in words) [3]: did not differ significantly

C=CCc1ccc(O)c(OC)c1 [Eugenol, eugenol]
LC50 [1, 7]: 75.8 mg/L (≈ 461 µM)
LC90 (mg/L) (95% CI) [1, 8]: 141.4 (126.3–166.2) mg/L
LC50 [2, 9]: 74.3 mg/L (≈ 453 µM)
LC90 (mg/L) (95% CI) [2, 10]: 143.3 (127.2–170.3) mg/L

COc1ccccc1O [Guaiacol, guaiacol]
LC50 [1, 7]: 115 mg/L (≈ 930 µM)
LC90 (mg/L) (95% CI) [1, 8]: 223.1 (188.3–292.1) mg/L
LC50 [2, 9]: 108 mg/L (≈ 868 µM)
LC90 (mg/L) (95% CI) [2, 10]: 205.6 (176.3–260.9) mg/L

CCCCC/C=C\C/C=C\CCCCCCCC(=O)O [Linoleic acid, (9Z,12Z)-9,12-octadecadienoic acid]
LC50 [1, 11]: 7.19 mg/L (≈ 25.6 µM)
LC90 (mg/L) (95% CI) ([1]; Table 3, listed as Natural linoleic acid): 27.04 (20.52–43.96) mg/L
LC50 (mg/L) (95% CI) [1, 12]: 7.34 (5.58–8.92) mg/L
LC90 (mg/L) (95% CI) [1, 12]: 29.70 (23.19–43.79) mg/L
times less toxic than temephos ([1]; from 24 h LC50 values): 575 times
LC50 [4]: 7.5 mg/L (≈ 26.7 µM)
LC90 (mg/L) (95% CI) [4]: 16.04 (14.05–19.06) mg/L
Slope ± SE [4]: 3.9 ± 0.56
LC50 [5]: 7.28 mg/L (≈ 26 µM)
LC90 (mg/L) (95% CI) [5]: 27.81 (20.95–46.02) mg/L
times less toxic than temephos ([5]; from 24 h LC50 values): 552 times
Slope ± SE [5]: 4.4 ± 0.59
LC50 [2, 13]: 6.97 mg/L (≈ 24.9 µM)
LC90 (mg/L) (95% CI) ([2]; Table 2, KS-CP strain, listed as Natural linoleic acid): 19.41 (15.94–26.34) mg/L
LC50 (mg/L) (95% CI) ([2]; Table 2, KS-CP strain, listed as Pure linoleic acid): 8.36 (6.09–10.40) mg/L
times less toxic than temephos ([2]; from 24 h LC50 values): 430 times
LC50 [6]: 6.97 to 7.5 µg/mL (≈ 24.9 to 26.7 µM)

C=CCc1cc(OC)c(O)c(OC)c1 [Methoxyeugenol, methoxyeugenol]
LC50 [1, 7]: 9.15 mg/L (≈ 47.1 µM)
LC90 (mg/L) (95% CI) [1, 8]: 29.46 (22.83–44.88) mg/L
LC50 [2, 9]: 8.4 mg/L (≈ 43.2 µM)
LC90 (mg/L) (95% CI) [2, 10]: 25.52 (20.27–36.92) mg/L
AChE inhibitory activity (in words) [3]: lowest of all of the compounds that were examined

CCCCCCCCCCCCCCCC(=O)O [Palmitic acid, hexadecanoic acid]
LC50 (mosquito species larvae; flavonoids and fatty acids): 34.50 to 42.96 µg/mL
LC50 [1, 11]: 33.5 mg/L (≈ 131 µM)
LC90 (mg/L) (95% CI) ([1]; Table 3, listed as Natural palmitic acid): 129.3 (99.59–189.2) mg/L
LC50 (mg/L) (95% CI) [1, 14]: 36.49 (29.30–44.83) mg/L
LC90 (mg/L) (95% CI) [1, 14]: 204.1 (139.4–378.1) mg/L
LC50 [4]: 47.6 mg/L (≈ 186 µM)
LC90 (mg/L) (95% CI) [4]: 192.8 (148.1–282.2) mg/L
Slope ± SE [4]: 2.1 ± 0.22
LC50 [5]: 36.9 mg/L (≈ 144 µM)
LC90 (mg/L) (95% CI) [5]: 135.1 (104.3–196.9) mg/L
Slope ± SE [5]: 3.1 ± 0.38
LC50 [2, 13]: 32.6 mg/L (≈ 127 µM)
LC90 (mg/L) (95% CI) ([2]; Table 2, KS-CP strain, listed as Natural palmitic acid): 112.3 (88.96–156.2) mg/L
LC50 (mg/L) (95% CI) [2, 15]: 34.92 (29.48–40.76) mg/L
LC90 (mg/L) (95% CI) [2, 15]: 119.3 (94.38–166.4) mg/L
LC50 [6]: 32.6 to 47.6 µg/mL (≈ 127 to 186 µM)

C=CC[C@@]12C=C(OC)C(=O)C=C1O[C@H](c1ccc3c(c1)OCO3)[C@H]2C [burchellin]
LC50 (mosquito species larvae; neolignans): 15.5 µg/mL (≈ 45.5 µM)

N#C[C@@H](O[C@@H]1O[C@H](CO)[C@@H](O)[C@H](O)[C@H]1O)c1ccc(O)cc1 [dhurrin]
LC50 (mosquito species larvae; cyanogenic glycosides): 12 µg/mL (≈ 38.5 µM)

CCOC(=O)C=Cc1ccc(OC)cc1 [ethyl p-methoxycinnamate]
LC50 (mosquito species larvae; phenylpropanoids): 12.3 to 20.7 µg/mL

C=C[C@@H](O)C#CC#C[C@@H](O)/C=C\CCCCCCC [falcarindiol]
LC50 (mosquito species larvae; acetylenic alcohols): 6.51 µg/mL (≈ 25 µM)

C=C[C@H](O)C#CC#CC/C=C\CCCCCCC [falcarinol]
LC50 (mosquito species larvae; acetylenic alcohols): 3.49 µg/mL (≈ 14.3 µM)

CC(C)=C1C[C@H]2C(=C(C)CC1=O)CC[C@]2(C)O [neoprocurcumenol]
LC50 (mosquito species larvae; terpenoids): 13.69 µg/mL (≈ 58.4 µM)

C=CCc1cccc(OC)c1O [o-Eugenol, o-eugenol]
LC50 [1, 7]: 8.84 mg/L (≈ 53.8 µM)
LC90 (mg/L) (95% CI) [1, 8]: 24.01 (19.52–33.06) mg/L
LC50 [2, 9]: 7.46 mg/L (≈ 45.4 µM)
LC90 (mg/L) (95% CI) [2, 10]: 23.13 (18.42–33.49) mg/L
AChE inhibitory activity (in words) [3]: relatively weak AChE inhibitors

CCCCCCCC/C=C\CCCCCCCC(=O)O [oleic acid]
LC50 (mosquito species larvae; flavonoids and fatty acids): 18.07 to 18.45 µg/mL

Oc1ccc(-c2ccc(O)cc2)cc1 [p,p′-Biphenol, p,p′-biphenol]
LC50 [1, 7]: 8.34 mg/L (≈ 44.8 µM)
LC90 (mg/L) (95% CI) [1, 8]: 27.76 (21.50–42.52) mg/L
LC50 [2, 9]: 7.52 mg/L (≈ 40.4 µM)
LC90 (mg/L) (95% CI) [2, 10]: 23.97 (18.97–35.16) mg/L
AChE inhibitory activity (in words) [3]: relatively weak AChE inhibitors

CCc1ccc(O)cc1 [p-Ethylphenol, p-ethylphenol]
LC50 [1, 7]: 9.03 mg/L (≈ 73.9 µM)
LC90 (mg/L) (95% CI) [1, 8]: 30.57 (23.29–48.51) mg/L
LC50 [2, 9]: 8.3 mg/L (≈ 67.9 µM)
LC90 (mg/L) (95% CI) [2, 10]: 25.86 (20.36–38.21) mg/L
AChE inhibitory activity (in words) [3]: relatively weak AChE inhibitors

(−)-asarinin
LC50 (mosquito species larvae; lignans): 10.49 to 16.49 µg/mL

isoeugenol
LC90 (mg/L) (95% CI) [1, 8]: 137.2 (124.3–161.2) mg/L
LC90 (mg/L) (95% CI) [2, 10]: 138.1 (124.4–164.5) mg/L
